Experimental data taken from US20170008888A1 (KYORIN PHARMACEUTICAL CO., LTD., priority 2014, published 2017).
Read-outs that look alike come from different tables or passages of the source.

Experiments:
ERK5 = target: T1, ERK5 (Homo sapiens, UniProt Q13164); assay: Probe-based (AX9989 acyl phosphate ATP probe) kinase profiling in Jurkat lysate: ERK5; format: binding; settings: for IC50: Jurkat lysate
T1 construct: screened for activity against several kinases in Jurkat cells; endogenous in cells; host or cells: Jurkat cell lysate
T1 sequence (Q13164 whole entry): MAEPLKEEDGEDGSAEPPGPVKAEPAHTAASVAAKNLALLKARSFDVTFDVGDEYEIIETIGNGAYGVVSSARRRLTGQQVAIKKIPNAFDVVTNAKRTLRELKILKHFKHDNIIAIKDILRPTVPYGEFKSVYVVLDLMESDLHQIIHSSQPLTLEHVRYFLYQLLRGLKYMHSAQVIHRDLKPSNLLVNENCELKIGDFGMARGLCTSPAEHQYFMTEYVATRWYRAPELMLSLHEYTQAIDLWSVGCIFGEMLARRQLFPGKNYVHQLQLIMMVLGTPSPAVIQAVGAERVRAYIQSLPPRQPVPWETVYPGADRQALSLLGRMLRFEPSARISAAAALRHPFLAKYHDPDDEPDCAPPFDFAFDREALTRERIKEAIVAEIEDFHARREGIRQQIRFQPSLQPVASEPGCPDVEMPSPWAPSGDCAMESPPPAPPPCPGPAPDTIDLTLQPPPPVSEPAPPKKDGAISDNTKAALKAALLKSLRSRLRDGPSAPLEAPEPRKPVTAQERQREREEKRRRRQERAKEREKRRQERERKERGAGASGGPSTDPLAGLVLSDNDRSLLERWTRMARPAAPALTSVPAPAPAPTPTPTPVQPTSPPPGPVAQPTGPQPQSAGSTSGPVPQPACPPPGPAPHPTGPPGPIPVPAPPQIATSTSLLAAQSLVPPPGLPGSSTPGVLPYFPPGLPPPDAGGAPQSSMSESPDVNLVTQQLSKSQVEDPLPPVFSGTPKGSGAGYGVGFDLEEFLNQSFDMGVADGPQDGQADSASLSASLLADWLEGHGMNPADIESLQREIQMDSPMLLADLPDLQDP
How it was run: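 Gel-filtered Jurkat lysate (5 mg/ml, 20 mM MnCl2) preincubated 15 min at room temperature with compound, then labelled with 5 μM AX9989 acyl phosphate ATP probe. Probe-labelled ERK5 active-site peptides quantified by LC/MS after trypsin digestion and streptavidin capture; IC50 calculated from percent inhibition at the screening concentration.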

AurA = target: T2, AurA (Homo sapiens, UniProt O14965); assay: Probe-based (AX9989) kinase profiling in Jurkat lysate: AurA; format: binding
T2 construct: screened for activity against several kinases in Jurkat cells; endogenous in cells; host or cells: Jurkat cell lysate
T2 sequence (O14965 1-403): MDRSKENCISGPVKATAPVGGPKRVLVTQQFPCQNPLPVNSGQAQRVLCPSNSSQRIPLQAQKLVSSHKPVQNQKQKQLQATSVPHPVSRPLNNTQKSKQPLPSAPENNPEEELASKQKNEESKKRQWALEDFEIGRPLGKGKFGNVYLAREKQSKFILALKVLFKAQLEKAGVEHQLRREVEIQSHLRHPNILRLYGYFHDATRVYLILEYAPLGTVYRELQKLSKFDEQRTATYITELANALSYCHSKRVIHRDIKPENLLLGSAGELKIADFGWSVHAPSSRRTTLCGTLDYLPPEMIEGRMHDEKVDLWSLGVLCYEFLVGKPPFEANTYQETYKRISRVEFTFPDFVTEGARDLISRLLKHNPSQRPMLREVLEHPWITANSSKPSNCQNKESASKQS
How it was run: (§1)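 Gel-filtered Jurkat lysate (HEPES pH 7.5, 20 mM MnCl2, 5 mg/ml) was pre-incubated 15 min with compound at room temperature, then labelled with 5 μM acyl-phosphate ATP probe AX9989. Tryptic probe-labelled active-site peptides were streptavidin-captured and quantified by LC/MS. Percent inhibition reflected the decrease in labelled-peptide intensity versus no compound.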

AurB or AurC = assay: Probe-based (AX9989) kinase profiling in Jurkat lysate: AurB or AurC; format: binding; settings: for AurB or AurC Inhibition % at indicated screening concentration: screening concentration 1 μM
How it was run: as §1

JAK1 = target: T3, JAK1 (Homo sapiens, UniProt P23458); assay: Probe-based (AX9989) kinase profiling in Jurkat lysate: JAK1; format: binding
T3 construct: screened for activity against several kinases in Jurkat cells; endogenous in cells; host or cells: Jurkat cell lysate
T3 sequence (P23458 whole entry): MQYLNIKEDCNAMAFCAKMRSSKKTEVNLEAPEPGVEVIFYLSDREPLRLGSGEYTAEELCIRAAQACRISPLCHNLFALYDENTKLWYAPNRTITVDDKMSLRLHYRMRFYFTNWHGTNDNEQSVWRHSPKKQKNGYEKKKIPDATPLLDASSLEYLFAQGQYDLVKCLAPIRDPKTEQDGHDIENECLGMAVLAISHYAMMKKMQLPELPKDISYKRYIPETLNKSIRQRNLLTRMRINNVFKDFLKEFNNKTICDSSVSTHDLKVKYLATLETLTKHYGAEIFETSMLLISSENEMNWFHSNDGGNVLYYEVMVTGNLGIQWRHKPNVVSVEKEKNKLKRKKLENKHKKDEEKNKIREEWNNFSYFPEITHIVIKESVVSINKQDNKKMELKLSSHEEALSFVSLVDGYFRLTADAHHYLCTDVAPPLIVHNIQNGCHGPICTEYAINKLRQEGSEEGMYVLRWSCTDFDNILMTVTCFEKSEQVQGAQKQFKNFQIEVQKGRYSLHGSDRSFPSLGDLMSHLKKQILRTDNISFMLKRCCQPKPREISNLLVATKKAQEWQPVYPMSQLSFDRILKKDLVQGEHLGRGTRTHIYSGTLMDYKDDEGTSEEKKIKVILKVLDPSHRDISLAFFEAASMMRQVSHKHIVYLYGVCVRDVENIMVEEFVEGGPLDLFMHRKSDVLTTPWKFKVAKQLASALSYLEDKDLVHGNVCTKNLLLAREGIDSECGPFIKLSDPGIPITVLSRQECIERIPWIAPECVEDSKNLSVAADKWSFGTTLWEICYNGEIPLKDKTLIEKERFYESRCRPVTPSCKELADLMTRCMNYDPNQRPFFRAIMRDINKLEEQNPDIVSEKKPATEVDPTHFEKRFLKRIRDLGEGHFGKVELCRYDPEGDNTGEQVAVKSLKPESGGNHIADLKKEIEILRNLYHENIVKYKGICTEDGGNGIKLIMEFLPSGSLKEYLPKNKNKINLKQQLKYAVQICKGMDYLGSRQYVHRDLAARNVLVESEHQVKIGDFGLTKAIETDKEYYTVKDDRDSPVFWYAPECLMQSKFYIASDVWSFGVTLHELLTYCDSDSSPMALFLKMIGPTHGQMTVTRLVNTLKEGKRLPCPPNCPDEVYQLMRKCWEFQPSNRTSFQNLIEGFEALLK
How it was run: as §1

ACK = target: T4, ACK (Homo sapiens, UniProt Q07912); assay: Probe-based (AX9989) kinase profiling in Jurkat lysate: ACK; format: binding
T4 construct: screened for activity against several kinases in Jurkat cells; endogenous in cells; host or cells: Jurkat cell lysate
T4 sequence (Q07912 whole entry): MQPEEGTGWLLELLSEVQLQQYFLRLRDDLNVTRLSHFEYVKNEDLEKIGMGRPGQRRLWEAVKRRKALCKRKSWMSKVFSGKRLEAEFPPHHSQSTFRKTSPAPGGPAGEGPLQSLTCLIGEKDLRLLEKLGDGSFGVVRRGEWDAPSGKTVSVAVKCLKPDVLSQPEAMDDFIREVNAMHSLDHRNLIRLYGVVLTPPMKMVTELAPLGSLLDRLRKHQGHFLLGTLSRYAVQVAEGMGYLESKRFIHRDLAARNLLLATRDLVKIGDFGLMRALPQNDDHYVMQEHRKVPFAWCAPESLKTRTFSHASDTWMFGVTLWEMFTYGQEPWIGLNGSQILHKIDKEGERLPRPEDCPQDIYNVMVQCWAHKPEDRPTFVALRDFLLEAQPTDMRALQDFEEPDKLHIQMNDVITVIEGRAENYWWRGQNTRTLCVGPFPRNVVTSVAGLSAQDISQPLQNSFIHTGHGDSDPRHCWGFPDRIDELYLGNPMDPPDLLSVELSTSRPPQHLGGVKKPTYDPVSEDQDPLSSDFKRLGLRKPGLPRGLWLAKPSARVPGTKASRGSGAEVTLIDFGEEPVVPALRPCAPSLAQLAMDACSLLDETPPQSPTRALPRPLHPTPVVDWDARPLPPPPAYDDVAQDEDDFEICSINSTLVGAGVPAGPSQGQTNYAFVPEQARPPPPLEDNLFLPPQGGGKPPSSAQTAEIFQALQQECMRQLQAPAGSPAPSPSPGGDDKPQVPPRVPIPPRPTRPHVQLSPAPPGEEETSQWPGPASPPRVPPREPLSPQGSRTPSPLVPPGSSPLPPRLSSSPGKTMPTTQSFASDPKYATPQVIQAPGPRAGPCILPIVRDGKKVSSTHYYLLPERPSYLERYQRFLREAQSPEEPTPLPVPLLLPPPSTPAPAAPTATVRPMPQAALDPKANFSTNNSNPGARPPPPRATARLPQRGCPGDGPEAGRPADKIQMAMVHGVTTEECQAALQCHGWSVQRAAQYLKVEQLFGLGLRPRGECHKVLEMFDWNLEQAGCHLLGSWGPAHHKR
How it was run: as §1

human PBMCs = assay: Human PBMC TNF-α response to endotoxin (ELISA); format: cell-based; settings: 0.1 μg/ml LPS 16 h, read-out: EC50 for the inhibition of the human PBMC TNF-α response to endotoxin, ave. ± S.D.
How it was run: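 PBMCs at 2e6 cells/ml in RPMI 1640 with 10% charcoal-dextran-treated FBS were pre-treated 1 h at 37 °C with compound (4-point 1:5 dilution from 10 μM). Stimulation with 0.1 μg/ml E. coli 0111:B4 LPS for 16 h; TNF-α measured by ELISA (A450) in 25-fold diluted supernatant.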

[1] = target: T5, recombinant human ERK5 catalytic domain (Homo sapiens, UniProt Q13164); assay: Recombinant human ERK5 radiometric (HotSpot) assay; format: biochemical; settings: 10 μM ATP, 20 μM myelin basic protein substrate; read-out: rhERK5 IC50
T5 construct: Recombinant human ERK5 catalytic domain radiometric assays; purchased Reaction Biology, Corp (Malvern, Pa.), which ran the assay as a service
T5 sequence (Q13164 55-347 limits assumed): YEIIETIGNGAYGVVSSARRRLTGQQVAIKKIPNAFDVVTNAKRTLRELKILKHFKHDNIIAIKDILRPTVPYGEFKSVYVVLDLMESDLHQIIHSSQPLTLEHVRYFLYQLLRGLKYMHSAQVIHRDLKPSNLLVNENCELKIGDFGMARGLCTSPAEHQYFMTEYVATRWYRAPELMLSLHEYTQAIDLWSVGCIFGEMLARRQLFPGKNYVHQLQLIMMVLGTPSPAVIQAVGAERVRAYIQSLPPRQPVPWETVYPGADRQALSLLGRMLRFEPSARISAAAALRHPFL
Description: In this example, potency of the compounds in recombinant human ERK5 was assayed.
Recombinant human ERK5 catalytic domain radiometric assays were performed by Reaction Biology, Corp (Malvern, Pa.). The HotSpot radiometric assay is based on conventional filter-binding assays (Nature Biotechnology (2011) 29: 1039-1045). Compounds were tested at 20 μM down by ⅓ in a 10 point serial dilution series. Briefly, [γ-33P]-ATP was used as the tracer along with 10 μM cold ATP to label ERK5 in the presence of 20 μM myelin basic protein substrate.

[2] = calculated from percent inhibition of AX9989 labeling and the screening concentration
[3] = screening concentration 1.0 μM, read-out: Kinase inhibition % at indicated screening concentration: ERK5
[4] = screening concentration 1.0 μM, read-out: Kinase inhibition % at indicated screening concentration: AurA
[5] = screening concentration 1.0 μM, read-out: Kinase inhibition % at indicated screening concentration: JAK1
[6] = screening concentration 1.0 μM, read-out: Kinase inhibition % at indicated screening concentration: ACK
[7] = calculated from percent inhibition and screening concentration, AX9989 probe
[8] = screening concentration 1 μM, read-out: ERK5 Inhibition % at indicated screening concentration
[9] = screening concentration 1 μM, read-out: AurA Inhibition % at indicated screening concentration
[10] = screening concentration 1 μM, read-out: JAK1 Inhibition % at indicated screening concentration
[11] = screening concentration 1 μM, read-out: ACK Inhibition % at indicated screening concentration

Row | IC50 (ERK5; [2]) | inhibition at 1 µM (ERK5; [3]) | inhibition at 1 µM (AurA; [4]) | Kinase inhibition % at indicated screening concentration: AurB or AurC (AurB or AurC; screening concentration 1.0 μM) | inhibition at 1 µM (JAK1; [5]) | inhibition at 1 µM (ACK; [6]) | IC50 (ERK5; [7]) | inhibition at 1 µM (ERK5; [8]) | inhibition at 1 µM (AurA; [9]) | AurB or AurC Inhibition % at indicated screening concentration (AurB or AurC) | inhibition at 1 µM (JAK1; [10]) | inhibition at 1 µM (ACK; [11]) | SMILES | EC50 (human PBMCs) | further results
1 | > 500 nM | 50 to 75% | ≤ 35% | E (E is ≦35%) | ≤ 35% | ≤ 35% | – | – | – | – | – | – | CCOc1cc(C(=O)NCCc2ccncc2)ccc1Nc1cc2c(cn1)N(C)C(=O)c1ccccc1N2C [Compound 107] | 1310 nM | –
2 | ≤ 50 nM | > 90% | ≤ 35% | E (E is ≦35%) | ≤ 35% | ≤ 35% | – | – | – | – | – | – | CCOc1cc(C(=O)N2CCN(CC)CC2)ccc1Nc1cc2c(cn1)N(C)C(=O)c1ccccc1N2C [Compound 108] | 700 nM | –
3 | ≤ 50 nM | – | – | – | – | – | – | – | – | – | – | – | CN1C(=O)c2ccccc2N(C)c2cc(Nc3ccc(C(=O)N4CC[C@@H](N(C)C)C4)cc3F)ncc21 [Compound 110] | 1760 ± 500 nM | inhibition at 10 µM (ERK5; screening concentration 10.0 μM, read-out: Kinase inhibition % at indicated screening concentration: ERK5): > 90%; inhibition at 10 µM (AurA; screening concentration 10.0 μM, read-out: Kinase inhibition % at indicated screening concentration: AurA): 35 to 50%; Kinase inhibition % at indicated screening concentration: AurB or AurC (AurB or AurC; screening concentration 10.0 μM): C (C is >50% to ≦75%); inhibition at 10 µM (JAK1; screening concentration 10.0 μM, read-out: Kinase inhibition % at indicated screening concentration: JAK1): ≤ 35%; inhibition at 10 µM (ACK; screening concentration 10.0 μM, read-out: Kinase inhibition % at indicated screening concentration: ACK): ≤ 35%
4 | ≤ 50 nM | ≤ 35% | ≤ 35% | E (E is ≦35%) | ≤ 35% | ≤ 35% | – | – | – | – | – | – | CCOc1cc(C(=O)N2CCOCC2)ccc1Nc1cc2c(cn1)N(C)C(=O)c1ccccc1N2C [Compound 111] | 540 nM | –
5 | ≤ 50 nM | – | – | – | – | – | – | – | – | – | – | – | CCOc1cc(C(=O)N2CC(N3CCCCC3)C2)ccc1Nc1cc2c(cn1)N(C)C(=O)c1ccccc1N2C [Compound 114] | 530 nM | inhibition at 0.1 µM (ERK5; screening concentration 0.1 μM, read-out: Kinase inhibition % at indicated screening concentration: ERK5): > 90%; inhibition at 0.1 µM (AurA; screening concentration 0.1 μM, read-out: Kinase inhibition % at indicated screening concentration: AurA): ≤ 35%; Kinase inhibition % at indicated screening concentration: AurB or AurC (AurB or AurC; screening concentration 0.1 μM): E (E is ≦35%); inhibition at 0.1 µM (JAK1; screening concentration 0.1 μM, read-out: Kinase inhibition % at indicated screening concentration: JAK1): ≤ 35%; inhibition at 0.1 µM (ACK; screening concentration 0.1 μM, read-out: Kinase inhibition % at indicated screening concentration: ACK): ≤ 35%
6 | ≤ 50 nM | > 90% | ≤ 35% | E (E is ≦35%) | ≤ 35% | ≤ 35% | – | – | – | – | – | – | CCOc1cc(C(=O)N2CC[C@@H](N(C)C)C2)ccc1Nc1cc2c(cn1)N(C)C(=O)c1ccccc1N2C [Compound 115] | 840 ± 530 nM | –
7 | ≤ 50 nM | > 90% | ≤ 35% | E (E is ≦35%) | ≤ 35% | ≤ 35% | – | – | – | – | – | – | CCOc1cc(C(=O)N2CCC(CN3CCOCC3)CC2)ccc1Nc1cc2c(cn1)N(C)C(=O)c1ccccc1N2C [Compound 120] | 860 nM | –
8 | ≤ 50 nM | > 90% | ≤ 35% | E (E is ≦35%) | ≤ 35% | ≤ 35% | – | – | – | – | – | – | CCOc1cc(C(=O)N(CC)CCN(CC)CC)ccc1Nc1cc2c(cn1)N(C)C(=O)c1ccccc1N2C [Compound 122] | 1130 ± 380 nM | –
9 | – | – | – | – | – | – | ≤ 50 nM | > 90% | ≤ 35% | E (E is ≦35%) | ≤ 35% | ≤ 35% | CCOc1cc(C(=O)N2CCC(NC(C)C)C2)ccc1Nc1cc2c(cn1)N(C)C(=O)c1ccccc1N2C (centres unmarked) [Compound T4] | 490 nM | –
10 | – | – | – | – | – | – | ≤ 50 nM | > 90% | ≤ 35% | E (E is ≦35%) | ≤ 35% | ≤ 35% | CCOc1cc(C(=O)N2C[C@H]3CCN[C@H]3C2)ccc1Nc1cc2c(cn1)N(C)C(=O)c1ccccc1N2C [Compound T5] | 840 nM | –
11 | – | – | – | – | – | – | ≤ 50 nM | > 90% | ≤ 35% | E (E is ≦35%) | ≤ 35% | ≤ 35% | CCOc1cc(C(=O)N2CCN(C3CCN(C)CC3)CC2)ccc1Nc1cc2c(cn1)N(C)C(=O)c1ccccc1N2C [Compound T8] | 410 ± 120 nM | IC50 [1]: < 20 nM
12 | – | – | – | – | – | – | ≤ 50 nM | > 90% | ≤ 35% | E (E is ≦35%) | ≤ 35% | ≤ 35% | CCOc1cc(C(=O)N2CC[C@@H](NCCF)C2)ccc1Nc1cc2c(cn1)N(C)C(=O)c1ccccc1N2C [Compound T9] | 590 nM | IC50 [1]: 20 to 50 nM
13 | – | – | – | – | – | – | ≤ 50 nM | > 90% | ≤ 35% | E (E is ≦35%) | ≤ 35% | ≤ 35% | CCOc1cc(C(=O)N2CCC(N3CC[C@@H](O)C3)CC2)ccc1Nc1cc2c(cn1)N(C)C(=O)c1ccccc1N2C [Compound T10] | 650 nM | IC50 [1]: 20 to 50 nM
14 | – | – | – | – | – | – | ≤ 50 nM | > 90% | ≤ 35% | E (E is ≦35%) | ≤ 35% | ≤ 35% | CCOc1cc(C(=O)N2CCC(N3CC[C@H](O)C3)CC2)ccc1Nc1cc2c(cn1)N(C)C(=O)c1ccccc1N2C [Compound T11] | 620 nM | IC50 [1]: 20 to 50 nM
15 | – | – | – | – | – | – | ≤ 50 nM | > 90% | ≤ 35% | E (E is ≦35%) | ≤ 35% | ≤ 35% | CCOc1cc(C(=O)N2CCN(CCN(C)C)CC2)ccc1Nc1cc2c(cn1)N(C)C(=O)c1ccccc1N2C [Compound T14] | 720 ± 50 nM | IC50 [1]: 20 to 50 nM
16 | – | – | – | – | – | – | 50 to 100 nM | > 90% | ≤ 35% | E (E is ≦35%) | ≤ 35% | ≤ 35% | CCOc1cc(C(=O)N(C)[C@H]2CC[C@H](O)CC2)ccc1Nc1cc2c(cn1)N(C)C(=O)c1ccccc1N2C [Compound T64] | 620 nM | –
17 | – | – | – | – | – | – | ≤ 50 nM | > 90% | ≤ 35% | E (E is ≦35%) | ≤ 35% | ≤ 35% | CN1CCC(N2CCN(C(=O)c3ccc(Nc4cc5c(cn4)N(C)C(=O)c4ccccc4N5C)c(F)c3)CC2)CC1 [Compound T70] | 2090 nM | –
18 | – | – | – | – | – | – | ≤ 50 nM | > 90% | ≤ 35% | E (E is ≦35%) | ≤ 35% | ≤ 35% | CN1CCC(N2CCN(C(=O)c3ccc(Nc4cc5c(cn4)N(C)C(=O)c4ccccc4N5C)c(OC(F)F)c3)CC2)CC1 [Compound T76] | 1110 nM | –
